One data set deals with CYP2C19 (Homo sapiens, UniProt P33261). The experiment in a line: CYP inhibition screening in microsomes. To be noted: pH 7.4.
The test system of a further data set is CYP3A. The data set can be described thus: CYP inhibition screening in microsomes. To be noted: human.
For a further data set, the target named is T1, caspase-8 (Homo sapiens, UniProt Q14790).
T1 construct: purchased Millipore (Billerica, MA)
The experiment in a line: IC50 assay with recombinant caspase-8. Type of data set: biochemical. To be noted: for IC50: mean±s.d. As for the experimental part:
(§1) Caspase-3 and 8 – The enzyme was pre-incubated with inhibitor in assay buffer (100 mM HEPES pH 7.4, 0.1% CHAPS, 10% Sucrose) for 10 min at 37 °C.
(§2) To determine the IC50 values of the compounds towards δ-secretase, cathepsin-S, cathepsin-L, caspase-3 and caspase-8, purified recombinant enzyme was incubated in appropriate assay buffers in the presence of increasing concentrations of inhibitors. The formation of fluorescent product was monitored in duplicate reactions and the data were fit to appropriate equations to calculate the IC50 values.

Data set [1] in a line: Liver microsomal stability, mouse. To be noted: Mouse microsomes, 30 min, 37 °C. As for the experimental part:
Supplementary Table 4: Liver microsomal stability
Compound Species Mean Remaining Parent Mean Remaining Parent
(with NADPH) (NADPH-free)
The test agents were incubated in duplicate with microsomes at 37 °C for 30 min. The reaction contained microsomal protein in 100 mM potassium phosphate, 2 mM NADPH, 3 mM MgCl2, pH 7.4. A control was run for each test agent omitting NADPH to detect NADPH-free degradation. Data are reported as % remaining of parent compound. ND, Peak not detected due to bioanalysis issue (poor ionization).
On the technique in general: Liver microsomes are a subcellular fraction often used to study metabolism.

For another data set, the target named is T2, cathepsin-S (Homo sapiens, UniProt P25774).
T2 construct: purchased Athens Research and Technology (Athens, GA)
The data set can be described thus: IC50 assay with recombinant cathepsin-S. Type of data set: biochemical. The following applies: mean±s.d. On the procedure:
Cathepsin-S – 100 nM enzyme was pre-incubated with inhibitor in assay buffer (100 mM NaH2PO4 pH 6.5, 100 mM NaCl) for 10 min at 37 °C. The reaction was initiated on addition of 25 μM substrate (Boc-Val-Leu-Lys-AMC (Bachem).
as §2

The next data set concerns the target T3, caspase-3 (Homo sapiens, UniProt P42574).
T3 construct: purchased Millipore (Billerica, MA)
T3 sequence (P42574 29-175 limits assumed): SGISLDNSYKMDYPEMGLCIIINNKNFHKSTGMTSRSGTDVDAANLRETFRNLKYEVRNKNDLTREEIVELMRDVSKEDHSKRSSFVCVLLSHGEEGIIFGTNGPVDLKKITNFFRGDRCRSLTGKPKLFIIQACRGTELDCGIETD
T3 sequence (P42574 176-277 limits assumed): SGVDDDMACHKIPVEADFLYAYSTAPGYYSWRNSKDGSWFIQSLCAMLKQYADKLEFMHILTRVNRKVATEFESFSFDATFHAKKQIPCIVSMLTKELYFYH
The experiment in a line: IC50 assay with recombinant caspase-3. Type of data set: biochemical. To be noted: mean±s.d. As for the experimental part:
as §1, §2

Data set [2] can be described thus: BBB-PAMPA permeability assay. To be noted: for Papp at 18 h: PAMPA, read-out: effective permeability Pe; for Papp at 18 h / effective permeability Pe: porcine brain lipid, 18 h. Type of data set: in vitro ADME. On the procedure:
Supplementary Table 3: Caco-2 permeability and BBB-PAMPA permeability […]
For CaCo-2 permeability assay, cells were incubated with 10 µM of these reagents in buffers for 2 h, and the receiver side buffer is removed for analysis by LC/MS/MS. Efflux […]
For BBB-PAMPA permeability assay, the filter membrane was coated with 4 µl of a 20 mg ml-1 porcine brain lipid in dodecane. 200 µl of the compound solution was added to the donor well. The acceptor well was filled with 200 µl of transport buffer. The acceptor filter plate was carefully placed on to the donor plate to create […]
a sandwich. […] Samples of the donor and acceptor wells were analyzed by LC/MS/MS and the effective permeability (Pe) was calculated.
(§3) LLOQ: Lower Limit of Quantification; Papp: apparent permeability.

Another data set addresses CYP2D6 (Homo sapiens, UniProt P10635). The experiment in a line: CYP inhibition screening in microsomes. To be noted: pH 7.4.
Another data set has as its target CYP2C9 (Homo sapiens, UniProt P11712). The experiment in a line: CYP inhibition screening in microsomes. The following applies: pH 7.4.
A short description of data set [3]: Caco-2 monolayer permeability screen. To be noted: human, Caco-2. As for the experimental part:
Supplementary Table 3: Caco-2 permeability and BBB-PAMPA permeability
For CaCo-2 permeability assay, cells were incubated with 10 µM of these reagents in
buffers for 2 h, and the receiver side buffer is removed for analysis by LC/MS/MS. Efflux […]
as §3

The target in data set [4] is T4, δ-secretase in Pala cells (Homo sapiens, UniProt Q99538).
T4 sequence (Q99538 18-433): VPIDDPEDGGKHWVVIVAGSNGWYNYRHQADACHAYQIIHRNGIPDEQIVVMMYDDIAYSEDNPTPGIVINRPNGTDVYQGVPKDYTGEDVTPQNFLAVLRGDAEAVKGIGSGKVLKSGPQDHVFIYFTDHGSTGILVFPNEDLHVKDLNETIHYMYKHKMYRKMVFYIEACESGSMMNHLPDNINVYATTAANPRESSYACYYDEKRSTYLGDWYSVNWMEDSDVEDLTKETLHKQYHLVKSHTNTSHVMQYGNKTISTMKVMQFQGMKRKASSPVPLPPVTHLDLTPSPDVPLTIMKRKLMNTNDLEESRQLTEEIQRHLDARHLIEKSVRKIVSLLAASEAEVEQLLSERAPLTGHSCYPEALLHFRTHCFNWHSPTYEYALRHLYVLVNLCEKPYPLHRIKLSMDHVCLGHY
The data set can be described thus: δ-secretase inhibition in intact Pala cells.
Procedure: Cells were collected, washed twice with PBS and lysed in Lysis Buffer (20 mM citric acid, 60 mM disodium hydrogen orthophosphate, 1 mM EDTA, 0.1% CHAPS, pH 5.8). […] Data were analysed with GraFit version 5.0.11 software package.
δ-secretaseactivity assay.

The target of a further data set is T5, δ-secretase (Homo sapiens, UniProt Q99538).
T5 construct: tested with purified active δ-secretase, IC50 values for the top 8 candidates were calculated; purchased Sino Biological (Beijing, China)
T5 sequence (Q99538 18-323 limits assumed): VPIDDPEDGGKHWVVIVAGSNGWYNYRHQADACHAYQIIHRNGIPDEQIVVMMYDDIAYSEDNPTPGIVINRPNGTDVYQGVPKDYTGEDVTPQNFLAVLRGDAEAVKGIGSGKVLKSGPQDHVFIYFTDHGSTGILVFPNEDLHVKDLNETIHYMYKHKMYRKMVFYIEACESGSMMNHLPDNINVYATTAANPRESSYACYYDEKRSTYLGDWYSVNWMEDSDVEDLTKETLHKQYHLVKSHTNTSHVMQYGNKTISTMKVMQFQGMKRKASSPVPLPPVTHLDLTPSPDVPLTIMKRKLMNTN
The data set can be described thus: IC50 assay with purified recombinant δ-secretase (AEP), substrate Cbz-Ala-Ala-Asn-AMC. It is filed as biochemical. On the procedure:
δ-secretase – 50 nM enzyme was pre-incubated with inhibitor in assay buffer (50 mM Sodium Citrate pH 5.5, 0.1% CHAPS, 60 mM Na2HPO4, 1 mM EDTA) for 10 min at 37 °C. The reaction was initiated on addition of 10 μM Cbz-Ala-Ala-Asn-AMC (Bachem).
as §2

The mark [5] stands for this setting: purified recombinant enzyme, mean±s.d., read-out: IC50 AEP (δ-secretase).

The values that follow come from PMC5378956, “Inhibition of delta-secretase improves cognitive functions in mouse models of Alzheimer's disease” (Nature Communications, 2017).

Like-named read-outs stand apart in the source and are kept apart here. A value given as a limit tells only on which side of the number the result lay.

T1 sequence (Q14790 217-374 limits assumed, species assumed): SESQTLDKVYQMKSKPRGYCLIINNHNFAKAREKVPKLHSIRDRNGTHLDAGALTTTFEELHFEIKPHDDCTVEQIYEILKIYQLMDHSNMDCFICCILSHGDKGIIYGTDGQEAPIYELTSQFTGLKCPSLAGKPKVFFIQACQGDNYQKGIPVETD
T1 sequence (Q14790 385-479 limits assumed, species assumed): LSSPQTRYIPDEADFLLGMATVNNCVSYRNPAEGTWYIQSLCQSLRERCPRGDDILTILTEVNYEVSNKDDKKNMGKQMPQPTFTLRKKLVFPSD
Sequence of CYP2C9 (P11712 whole entry): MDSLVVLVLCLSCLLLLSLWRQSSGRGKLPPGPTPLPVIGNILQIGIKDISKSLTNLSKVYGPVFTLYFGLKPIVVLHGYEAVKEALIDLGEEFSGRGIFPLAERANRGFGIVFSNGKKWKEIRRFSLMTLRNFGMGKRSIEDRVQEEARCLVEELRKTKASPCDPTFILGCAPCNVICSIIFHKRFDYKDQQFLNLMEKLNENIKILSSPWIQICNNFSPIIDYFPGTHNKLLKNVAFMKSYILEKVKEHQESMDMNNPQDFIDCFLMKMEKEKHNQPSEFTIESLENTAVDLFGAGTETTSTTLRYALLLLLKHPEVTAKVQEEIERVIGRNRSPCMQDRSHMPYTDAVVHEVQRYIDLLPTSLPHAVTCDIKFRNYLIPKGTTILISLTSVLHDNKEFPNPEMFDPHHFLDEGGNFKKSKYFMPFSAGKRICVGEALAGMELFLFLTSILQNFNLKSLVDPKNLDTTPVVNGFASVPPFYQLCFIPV
T2 sequence (P25774 115-331, species assumed): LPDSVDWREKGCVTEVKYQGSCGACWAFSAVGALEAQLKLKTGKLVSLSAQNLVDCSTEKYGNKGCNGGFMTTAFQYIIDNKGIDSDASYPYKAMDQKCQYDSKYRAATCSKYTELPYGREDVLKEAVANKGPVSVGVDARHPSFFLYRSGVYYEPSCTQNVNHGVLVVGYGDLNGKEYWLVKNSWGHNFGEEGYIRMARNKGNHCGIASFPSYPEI
Sequence of CYP2C19 (P33261 whole entry): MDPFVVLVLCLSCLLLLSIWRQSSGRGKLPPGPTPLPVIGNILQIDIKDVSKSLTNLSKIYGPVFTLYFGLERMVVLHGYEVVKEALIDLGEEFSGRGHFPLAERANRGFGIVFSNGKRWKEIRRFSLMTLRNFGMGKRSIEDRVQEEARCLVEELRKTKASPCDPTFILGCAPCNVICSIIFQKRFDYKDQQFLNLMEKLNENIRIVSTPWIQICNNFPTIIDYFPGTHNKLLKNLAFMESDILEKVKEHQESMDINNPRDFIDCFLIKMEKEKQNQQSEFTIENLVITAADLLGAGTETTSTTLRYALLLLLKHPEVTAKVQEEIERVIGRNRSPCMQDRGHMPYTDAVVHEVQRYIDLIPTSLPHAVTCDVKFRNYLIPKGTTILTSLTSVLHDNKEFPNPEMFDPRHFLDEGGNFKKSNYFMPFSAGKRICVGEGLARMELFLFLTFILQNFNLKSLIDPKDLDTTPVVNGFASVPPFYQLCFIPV
Sequence of CYP2D6 (P10635 whole entry): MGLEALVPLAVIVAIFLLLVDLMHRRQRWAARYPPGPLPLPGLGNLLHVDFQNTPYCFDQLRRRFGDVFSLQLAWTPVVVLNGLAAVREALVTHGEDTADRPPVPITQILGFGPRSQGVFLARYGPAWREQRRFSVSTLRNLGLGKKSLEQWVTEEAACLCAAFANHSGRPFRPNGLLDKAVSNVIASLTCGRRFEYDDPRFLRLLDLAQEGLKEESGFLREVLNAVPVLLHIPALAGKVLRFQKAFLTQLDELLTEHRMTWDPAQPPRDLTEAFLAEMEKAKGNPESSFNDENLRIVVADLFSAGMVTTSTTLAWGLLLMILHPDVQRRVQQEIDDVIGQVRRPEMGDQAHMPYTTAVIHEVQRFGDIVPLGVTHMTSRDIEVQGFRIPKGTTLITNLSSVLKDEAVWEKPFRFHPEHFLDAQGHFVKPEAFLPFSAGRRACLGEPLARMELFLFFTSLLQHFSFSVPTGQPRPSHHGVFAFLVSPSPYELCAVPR

`Nc1ccc(N2CCOCC2)c2nonc12` [compound 11, 7-(morpholin-4-yl)-2,1,3-benzoxadiazol-4-amine]: the inhibition (usually the drop in the measured response relative to a control, in per cent) at 10 min, 3 µM at CYP2C19 worked out at 4.4%; in the data set with CYP3A (pH 7.4) it was 4.1%; at CYP2D6 it was 7.8%; against CYP2C9 it was 4.3%. For the same compound, the inhibition at 10 min, 10 µM at CYP2C19 was 6.8%; in the data set with CYP3A (pH 7.4), 21.6%; on CYP2D6, 21.9%; on CYP2C9, 5.6%. Moreover, the IC50 at caspase-8 is 86.7 ± 10.3 µM; on cathepsin-S, above 200 µM; at caspase-3, 31.9 ± 1.94 µM. For the same compound, the “Mean Remaining Parent (NADPH-free)” value in [1] worked out at 103%. Besides, in [1], the “Mean Remaining Parent (with NADPH)” value is 20%. Besides, in data set [2], the “BBB-PAMPA permeability / BBB penetration in words” value is on record as “detected at high-levels”. Also, the Papp at 18 h in data set [2] was above 25 ×10⁻⁶ cm/s. Besides, the Papp A→B (as a rule, how fast a substance crosses the layer from the apical side) at 2 h, 10 µM in data set [3] was determined as 35 ×10⁻⁶ cm/s. In data set [3], the basolateral-to-apical permeability (Papp B→A) (usually the apparent permeability from the basolateral to the apical side of a cell layer) at 2 h, 10 µM is 7 ×10⁻⁶ cm/s.

Turning to `Cc1cccc(NCc2ccc(O)c3ncccc23)c1C` [compound 12], the inhibition at 10 min, 3 µM against CYP2C19 came to 13.4%; with CYP3A (pH 7.4, probe testosterone), 14.2%; against CYP2D6, 2.9%; at CYP2C9, 4.3%. For the same compound, the inhibition at 10 min, 10 µM against CYP2C19 was 29.4%; with CYP3A (pH 7.4, probe testosterone), 27.6%; against CYP2D6 it was -2.6%; against CYP2C9, -2.7%. Also, the IC50 in data set [4] was 0.43 ± 0.21 µM; on caspase-8 it was above 200 µM; on cathepsin-S, above 200 µM; at caspase-3, above 200 µM; at δ-secretase (setting [5]), 0.28 ± 0.02 µM. Also, the “Mean Remaining Parent (NADPH-free)” value in [1] was determined as 0%. Moreover, the “Mean Remaining Parent (with NADPH)” value in [1] is 1%. In data set [2], the “effective permeability Pe” value is “< LLOQ”. For the same compound, the apical-to-basolateral permeability (Papp A→B) at 2 h, 10 µM in data set [3] was determined as 1.4 ×10⁻⁶ cm/s. The compound further displayed a Papp B→A at 2 h, 10 µM in data set [3] of 3.7 ×10⁻⁶ cm/s. Further, the efflux ratio (as a rule, a quotient of directional permeabilities that is used to spot active efflux) at 2 h, 10 µM in data set [3] worked out at 2.7.

Turning to `COc1ccc(N2CCN(C(c3ccc(N(C)C)cc3)c3nnnn3C(C)(C)C)CC2)cc1` (stereo not drawn) [compound 31], the inhibition at 10 min, 3 µM against CYP2C19 came out at 37.7%; with CYP3A (pH 7.4, probe testosterone), 2.5%; against CYP2D6 it was 9.9%; against CYP2C9, 47.8%. For the same compound, the inhibition at 10 min, 10 µM at CYP2C19 is 55.7%; in the data set with CYP3A (pH 7.4, probe testosterone), 0.7%; at CYP2D6, 1.4%; against CYP2C9, 69.2%. For the same compound, the IC50 in [4] is 0.67 ± 0.4 µM; at caspase-8, above 100 µM; at cathepsin-S, above 100 µM; at caspase-3, above 100 µM; on δ-secretase (setting [5]), 0.26 ± 0.03 µM. The “Mean Remaining Parent (NADPH-free)” value in data set [1] was 86%. Moreover, in data set [1], the “Mean Remaining Parent (with NADPH)” value is recorded as 16%. In addition, in [2], the “BBB-PAMPA permeability / BBB penetration in words” value is recorded as “barely penetrate the BBB”. Further, in data set [2], the “effective permeability Pe” value is reported as “< LLOQ”. In addition, the apical-to-basolateral permeability (Papp A→B) at 2 h, 10 µM in data set [3] was 19.3 ×10⁻⁶ cm/s. Moreover, the basolateral-to-apical permeability (Papp B→A) at 2 h, 10 µM in data set [3] stood at 17.4 ×10⁻⁶ cm/s. Further, the efflux ratio at 2 h, 10 µM in data set [3] turned out to be 0.9.

As for `Cn1c(=O)[nH]c(=O)c2c1nc(S)n2CC(O)COc1ccc(Cl)cc1` (stereo not drawn) [compound 38], the inhibition at 10 min, 3 µM on CYP2C19 was -12%; in the data set on CYP3A (pH 7.4, probe testosterone) it was -6%; against CYP2D6, -5.4%; against CYP2C9 it was 15.6%. For the same compound, the inhibition at 10 min, 10 µM worked out at 9.5% on CYP2C19; 2.4% with CYP3A (pH 7.4, probe testosterone); 0.9% against CYP2D6; 17.1% on CYP2C9. Besides, the IC50 in data set [4] is 0.11 ± 0.05 µM; at caspase-8, 76.1 ± 8.12 µM; at cathepsin-S, above 200 µM; on caspase-3 it was 29.7 ± 4.68 µM; on δ-secretase (purified active δ-secretase, read-out: IC50 / potency toward δ-secretase), around 0.37 µM; at δ-secretase (setting [5]), 0.37 ± 0.06 µM. In addition, the “selectivity for δ-secretase compared to caspase-8” value on caspase-8 is “at least 80 fold”. Further, the “Mean Remaining Parent (NADPH-free)” value in data set [1] turned out to be 99%. Besides, the “Mean Remaining Parent (with NADPH)” value in [1] is listed as 98%. Further, the “BBB-PAMPA permeability / BBB penetration in words” value in data set [2] was “barely penetrate the BBB”. Further, the Papp at 18 h in data set [2] was determined as 0.007 ×10⁻⁶ cm/s. The Papp A→B at 2 h, 10 µM in data set [3] worked out at 1.1 ×10⁻⁶ cm/s. The compound also registered a Papp B→A at 2 h, 10 µM in data set [3] of 20.3 ×10⁻⁶ cm/s. Moreover, the efflux ratio at 2 h, 10 µM in data set [3] was 18.2.
